Source: US12077786B2, “Methods of cell selection and modifying cell metabolism” (LONZA LTD, priority 2018, dated 2024)

Tests used:
[1] = system: cell pools constructed using the P5CS/eGFP vector (GSKO cells); assay: P5CS/eGFP cell pools grown without proline with P5CS inhibitor, 96 deep well plates; format: cell-based, Chinese hamster; settings: with increase in inhibitor concentration; media lacking proline; 24-216 hours
Procedure: FIGS. 8A-8F are a series of diagrams showing cell pools generated using P5CS overexpression and cultured in the absence of proline, and in the presence of L-azetidine-2-carboxylic acid, a P5CS inhibitor. L-azetidine-2-carboxylic acid was added at a variety of different concentrations and cells were cultured in 96 deep well plates for 9 days. These cells were analyzed for cell growth, as measured by viable cell concentration (FIG. 8A) and culture viability (FIG. 8B). Cells were also analyzed for mean culture fluorescence (FIG. 8C) and percentage of cells exceeding the predetermined thresholds of 10^2 (FIG. 8D) and 10^3 (FIG. 8E).
FIGS. 9A-9F are a series of diagrams showing cell pools generated using P5CS overexpression and cultured in the absence of proline, and in the presence of 3,4-dehydro-L-proline, a P5CS inhibitor. 3,4-dehydro-L-proline was added at a variety of different concentrations and cells were cultured in 96 deep well plates for 9 days. These cells were analyzed for cell growth, as measured by viable cell concentration (FIG. 9A) and culture viability (FIG. 9B). Cells were also analyzed for mean culture fluorescence (FIG. 9C) and percentage of cells exceeding the predetermined thresholds of 10^2 (FIG. 9D) and 10^3 (FIG. 9E).
FIGS. 10A-10F are a series of diagrams showing cell pools generated using P5CS overexpression and cultured in the absence of proline, and in the presence of L-4-thiazolidinecarboxylic acid, a P5CS inhibitor. L-4-thiazolidinecarboxylic acid was added at a variety of different concentrations and cells were cultured in 96 deep well plates for 9 days. These cells were analyzed for cell growth, as measured by viable cell concentration (FIG. 10A) and culture viability (FIG. 10B). Cells were also analyzed for mean culture fluorescence (FIG. 10C) and percentage of cells exceeding the predetermined thresholds of 10^2 (FIG. 10D) and 10^3 (FIG. 10E).
In order to assess the capacity of the proline/P5CS system to generate recombinant cell pools, vectors comprising the P5CS gene and a gene of interest were transfected into cells and subsequently cultured in the absence of proline in an attempt to generate recombinant cell pools. Briefly, 1×10^7 Lonza's GSKO cells were electroporated with 20 μg plasmid which was first linearized using PvuI restriction enzyme (NEB) and purified using sodium acetate and ethanol precipitation. The construct used contained both the P5CS gene for evaluation as a selection marker and eGFP as a reporter gene. Transfections were carried out in CM76 medium in the absence of proline but supplemented with L-glutamine to achieve a final concentration of 6 mM. The cells were then cultured in 25 ml of this medium in a T75 flask for 10 days before being transferred to 10 ml suspension culture, also in proline absent medium. The resulting pool was analyzed using flow cytometry. Cell samples were first centrifuged at 1,000 rpm for 5 minutes and resuspended in 500 μl PBS. Samples were then loaded onto the probe of a FACScalibur™ (BD biosciences) and fluorescence intensity was measured in relation to the cell count. The forward scatter (FSC) was measure using the E-1 amplifier and side scatter (SSC) set to 465 whilst FL1 recorded cells at 473; all settings were converted to Log scales. In order to facilitate the adherence of suspension cells, coverslips were first submerged in poly-L-lysine and incubated for 15 minutes at room temperature. Coverslips were then removed and left to dry in a sterile environment before transferring to a 24 well plate. Cells were cultured at 37° C. overnight to facilitate adhering of cells to the coverslip before aspirating the medium and adding 250 μl of 4% paraformaldehyde in PBS and incubating for 20 minutes at 37° C. to fix cells. Subsequently two 1 ml PBS washes were carried out before 250 μl 0.1% triton X100 in PBS was added and incubated for 5 minutes at room temperature to permeablize cells. […]

[2] = system: cell pools constructed using the P5CS/eGFP vector (GSKO cells); assay: P5CS/eGFP cell pools grown without proline with P5CS inhibitor, static 24 well plates; format: cell-based, Chinese hamster; settings: with increase in inhibitor concentration; media lacking proline; 24-216 hours
Procedure: FIGS. 11A-11E are a series of diagrams showing analysis of cell pools generated using P5CS overexpression and cultured in the absence of proline, and in the presence of L-azetidine-2-carboxylic acid, a P5CS inhibitor. L-azetidine-2-carboxylic acid was added at a variety of different concentrations and cells were cultured in static 24 well plates for 9 days. These cells were analyzed for cell growth, as measured by viable cell concentration (FIG. 11A) and culture viability (FIG. 11B). Cells were also analyzed for mean culture fluorescence (FIG. 11C) and percentage of cells exceeding the predetermined thresholds of 10^2 (FIG. 11D) and 10^3 (FIG. 11E).
FIGS. 12A-12E are a series of diagrams showing analysis of cell pools generated using P5CS overexpression and cultured in the absence of proline, and in the presence of 3,4-dehydro-L-proline, a P5CS inhibitor. 3,4-dehydro-L-proline was added at a variety of different concentrations and cells were cultured in static 24 well plates for 9 days. These cells were analyzed for cell growth, as measured by viable cell concentration (FIG. 12A) and culture viability (FIG. 12B). Cells were also analyzed for mean culture fluorescence (FIG. 12C) and percentage of cells exceeding the predetermined thresholds of 10^2 (FIG. 12D) and 10^3 (FIG. 12E). […]

Row | SMILES | cell growth (viable cell number) [1] | mean fluorescence (eGFP) [1] | cell growth (viable cell number) [2] | mean fluorescence (eGFP) [2]
1 | O=C(O)[C@@H]1C=CCN1 [3,4-dehydro-L-proline] | slower cell growth | higher mean fluorescence | – | –
2 | O=C(O)[C@@H]1CCN1 [L-azetidine-2-carboxylic acid] | slower cell growth | higher mean fluorescence | slower cell growth | higher mean fluorescence
3 | O=C(O)[C@@H]1CSCN1 [L-4-thiazolidinecarboxylic acid] | slower cell growth | higher mean fluorescence | – | –
